Reference: patent US20210260022A1, “SYNERGY FOR INCREASING ENERGY EXPENDITURE AND INSULIN SENSITIVITY” (The Board of Supervisors of Louisiana State University and …, priority 2018, published 2021)
One block for each compound: values may come before it.

Tests used:
[1] = system: human adipocytes; test: Acute agonist-stimulated lipolysis (glycerol release) in untreated and NRBC-treated adipocytes; assay type: cell-based; conditions: 4.5 hour agonist exposure
Experimental: Acute agonist-stimulated glycerol release in untreated and NRBC-treated adipocytes. After 7d treatment with vehicle or NRBC, cells were exposed to receptor agonists dissolved in KRB with 1% BSA for 4.5 hours. Supernatants were removed for measurement of glycerol.
On the day of the acute lipolysis assay, cell cultures were rinsed with KRB to remove serum and exposed to the individual receptor agonists in KRB. Lipolysis was measured as glycerol released into the cell supernatant over 4.5 hour of agonist exposure. Non-hydrolyzable cAMP was also evaluated in each experiment as a positive control to measure the maximum capacity for PKA-stimulated lipolysis.

[2] = system: human adipocytes; test: qRT-PCR in human adipocytes (hADSC) treated two days with naringenin and inhibitors; assay type: cell-based; conditions: 2d treatment
Experimental: Human white adipocytes were treated for 2d with naringenin in the presence of inhibitors of metabolic pathways to determine the mechanism of action for stimulating fat oxidation and thermogenic energy expenditure.
Naringenin increased UCP1 and CPT1β mRNA induction compared to control (p<0.001). PPARα and PPARγ inhibition reduced UCP1 and CPT1β mRNA expression (p<0.001). Each experiment was conducted with three biological replicates and four technical replicates.
The whole orange extract was dissolved in DMSO at 15 mM (based on 28% naringenin content) and added to cells at a dilution of 1:500 to achieve a final concentration of 30 μM. The inhibitors added to the naringenin-treated cells included: peroxisome proliferator-activated receptor alpha (PPARα) antagonist GW6471 and peroxisome proliferator-activated receptor gamma (PPARγ) antagonist GW9662 (Cayman Chemical, Ann Arbor, Mich.) at 10 μM concentration, protein kinase A (PKA) inhibitor H89 (Millipore Sigma, Burlington, Mass.) at 20 μM concentration, and protein kinase G (PKG) inhibitor […] (Biolog Life Science Institute, AXXORA, LLC, Farmingdale, N.Y.) at 50 μM concentration. GW6471 and GW9662 were dissolved in DMSO at 1000×, H89 was dissolved in PBS at 500×, and Rp-8-pCPT-cGMPS was dissolved in PBS at 100× prior to dilution in cell culture medium. Following a two-day treatment, the cells were harvested with Trizol reagent. RNeasy Mini Kit (Qiagen, Germantown, Md.) was used to isolate total RNA following manufacturer's protocol. The expression of UCP1, CPT1β, and GLUT4 was quantified with one-step reverse transcriptase PCR using the reverse PCR primer to prime cDNA synthesis as previously described.^6

[3] = system: human adipocytes; test: UCP1 mRNA in human adipocytes, naringenin combined with other botanical compounds; assay type: cell-based; conditions: 5 μM naringenin in combination
Experimental: Human adipocytes were treated with 5 μM naringenin or with naringenin in combination with other botanical compounds to evaluate synergy in inducing UCP1 mRNA expression. A range of other botanical compounds such as […]

[4] = system: mice; conditions: 100 mg/kg injected daily; cited from earlier work
[5] = 4 mg/day, six months, obese children; cited from earlier work
[6] = system: mice; conditions: 150 mg/kg/day dietary; cited from earlier work
[7] = system: human adipocytes; test: mRNA expression (Taqman RT-PCR) in differentiated human adipocytes after 7 day treatment; assay type: cell-based; conditions: for UCP1 and GLUT4 expression, carotenoid alone: 2 μM carotenoid; for UCP1 and GLUT4 expression, carotenoid alone / UCP1 and GLUT4 expression, carotenoid in combination with naringenin extract: seven days; for UCP1 and GLUT4 expression, carotenoid in combination with naringenin extract: 8 μM naringenin extract + 2 μM carotenoid; for gene expression, carotenoid in combination with NR: compared with BC + NR

Compound: CC[C@H](C)[C@@H]1NC(=O)[C@H](CCCNC(=N)N)NC(=O)[C@H](CC(=O)O)NC(=O)[C@H](CCSC)NC(=O)[C@H](CCCNC(=N)N)NC(=O)CNC(=O)CNC(=O)[C@H](Cc2ccccc2)NC(=O)[C@@H](NC(=O)[C@H](CO)NC(=O)[C@H](CO)NC(=O)[C@H](CCCNC(=N)N)NC(=O)[C@H](CCCNC(=N)N)NC(=O)[C@H](CC(C)C)NC(=O)[C@@H](N)CO)CSSC[C@@H](C(=O)N[C@@H](CC(N)=O)C(=O)N[C@@H](CO)C(=O)N[C@@H](Cc2ccccc2)C(=O)N[C@@H](CCCNC(=N)N)C(=O)N[C@@H](Cc2ccc(O)cc2)C(=O)O)NC(=O)CNC(=O)[C@H](CC(C)C)NC(=O)CNC(=O)[C@H](CO)NC(=O)[C@H](CCC(N)=O)NC(=O)[C@H](C)NC(=O)CNC1=O [ANP]
- lipolysis stimulated by the agonist (glycerol release) [1]: highest levels of lipolysis

Compound: Nc1nc2c(nc(Sc3ccc(Cl)cc3)n2[C@@H]2O[C@@H]3CO[P@@](=O)(S)O[C@H]3[C@H]2O)c(=O)[nH]1 [Biolog C013, reference compound]
- Induction of UCP1 and CPT-1b by naringenin in the presence of the inhibitor [2]: unaffected

Compound: Nc1ncnc2c1ncn2[C@@H]1O[C@@H]2COP(=O)(O)O[C@H]2[C@H]1O [Cyclic AMP]
- lipolysis stimulated by the agonist (glycerol release) [1]: greater lipolysis activity than any individual receptor ligand

Compound: CC12CCC(CC1)C(C)(C)O2 [Ecalyptol]
- synergy with naringenin in increasing UCP1 mRNA levels [3]: did not synergize

Compound: CCC(=O)NC[C@H](Cc1ccc(OCCc2nc(-c3ccccc3)oc2C)cc1)N/C(C)=C\C(=O)c1ccc(C(F)(F)F)cc1 [GW6471, reference compound]
- Induction of UCP1 and CPT-1b by naringenin in the presence of the inhibitor [2]: abolished

Compound: O=C(Nc1ccccc1)c1cc([N+](=O)[O-])ccc1Cl [GW9661, reference compound]
- Induction of UCP1 and CPT-1b by naringenin in the presence of the inhibitor [2]: abolished

Compound: O=S(=O)(NCCNC/C=C/c1ccc(Br)cc1)c1cccc2cnccc12 [H89, reference compound]
- Induction of UCP1 and CPT-1b by naringenin in the presence of the inhibitor [2]: partially reduced

Compound: CCCCCCCC/C=C\CCCCCCCC(=O)NCCO [OEA, oleoylethanolamide]
- synergy with naringenin in increasing UCP1 mRNA levels [3]: did not synergize

Compound: CC1=C(/C=C/C(C)=C/C=C/C(C)=C/C(=O)O)C(C)(C)CCC1 [atRA, All-trans retinoic acid]
- body weight and adiposity [4]: reduction in body weight and adiposity

- RNA expression of uncoupling protein-1, adipose tissue glyceride lipase and adiponectin ([7]; beta carotene at 1 micromolar): increase RNA expression
Compound: CC1=C(/C=C/C(C)=C/C=C/C(C)=C/C=C/C=C(C)/C=C/C=C(C)/C=C/C2=C(C)CCCC2(C)C)C(C)(C)CCC1 [beta carotene, β-Carotene]
- BMI z-score, subcutaneous and visceral adipose tissue, waist circumference [5]: reduction in BMI z-score, subcutaneous adipose tissue, visceral adipose tissue, waist circumference
- insulin sensitivity [5]: improved insulin sensitivity
- adiposity, food intake, bodyweight [6]: reduced adiposity without altering food intake or bodyweight
- UCP1 and GLUT4 expression, carotenoid alone [7]: no effect

Compound: CC(CCc1ccc(O)cc1)NCCc1ccc(O)c(O)c1 (stereo not shown) [dobutamine]
- lipolysis stimulated by the agonist (glycerol release) [1]: comparable to isoproterenol

Compound: CC1=C[C@H](O)CC(C)(C)[C@H]1/C=C/C(C)=C/C=C/C(C)=C/C=C/C=C(C)/C=C/C=C(C)/C=C/C1=C(C)C[C@@H](O)CC1(C)C [lutein, Lutein]
- UCP1 and GLUT4 expression, carotenoid alone [7]: no effect
- UCP1 and GLUT4 expression, carotenoid in combination with naringenin extract [7]: act synergistically
- gene expression, carotenoid in combination with NR [7]: synergistic effect

Compound: CC(C)=CCC/C(C)=C/C=C/C(C)=C/C=C/C(C)=C/C=C/C=C(C)/C=C/C=C(C)/C=C/C=C(\C)CCC=C(C)C [lycopene, Lycopene]
- UCP1 and GLUT4 expression, carotenoid alone [7]: no effect
- UCP1 and GLUT4 expression, carotenoid in combination with naringenin extract [7]: act synergistically
- gene expression, carotenoid in combination with NR [7]: synergistic effect

Compound: PTH: parathyroid hormone (1-34) (SVSEIQLMHNLGKHLNSMERVEWLRKKLQDVHNF; Parathyroid hormone; UniProt P01270 32-65, looked up, fragment)
- lipolysis stimulated by the agonist (glycerol release) [1]: highest levels of lipolysis
